What was measured:
[1] = target: Cyclin-dependent kinase 2 (Homo sapiens, UniProt P24941); assay: Inhibition of CDK2 (unknown origin) expressed in baculovirus infected Sf9 cells in presence of [gamma-33p]-ATP and ATP
[2] = target: Cyclin-dependent kinase 5/p25; assay: Inhibition of CDK5/p25 (unknown origin)
[3] = target: Cyclin-dependent kinase 2/cyclin A; assay: Inhibition of CDK2/cyclin A (unknown origin)

## CC(C)c1n[nH]c2c(NCc3ccc(-c4ccccn4)cc3)nc(NCC(C)(C)O)nc12
[1]
  IC50: 9 nM

## Cc1cc(S(=O)(=O)NCCOCCOCCOCCOCCNc2cccc3c2C(=O)N(C2CCC(=O)NC2=O)C3=O)ccc1Nc1ncc(Br)c(Nc2cccc(F)c2C(N)=O)n1 (stereo not drawn)
[2]
  IC50: 6.8 nM

## O=C(Nc1csc(Cc2c(Cl)cccc2Cl)n1)NN1CCOCC1 [1-[2-(2,6-Dichloro-benzyl)-thiazol-4-yl]-3-morpholin-4-yl-urea]
[3]
  IC50: 10000 nM

— BindingDB's records for doi:10.1021/acs.jmedchem.3c00566 (Sichuan University, 2023)
